pIC50: −log10 of the molar value. Residues, ends and D or L forms follow the SMILES beside them.
What was measured:
[1] = target: Neuronal acetylcholine receptor; alpha3/beta2 (Homo sapiens, UniProt P17787+P32297); assay: Inhibition of alpha3beta2 nAChR; format: protein-complex assay
[2] = Selectivity for alpha3beta2 nAChR over alpha6beta2 nAChR
[3] = target: Neuronal acetylcholine receptor; alpha6/beta2 (Homo sapiens, UniProt P17787+Q15825); assay: Inhibition of alpha6beta2 nAChR; format: protein-complex assay
Chain of Neuronal acetylcholine receptor; alpha6/beta2 (P17787 whole entry): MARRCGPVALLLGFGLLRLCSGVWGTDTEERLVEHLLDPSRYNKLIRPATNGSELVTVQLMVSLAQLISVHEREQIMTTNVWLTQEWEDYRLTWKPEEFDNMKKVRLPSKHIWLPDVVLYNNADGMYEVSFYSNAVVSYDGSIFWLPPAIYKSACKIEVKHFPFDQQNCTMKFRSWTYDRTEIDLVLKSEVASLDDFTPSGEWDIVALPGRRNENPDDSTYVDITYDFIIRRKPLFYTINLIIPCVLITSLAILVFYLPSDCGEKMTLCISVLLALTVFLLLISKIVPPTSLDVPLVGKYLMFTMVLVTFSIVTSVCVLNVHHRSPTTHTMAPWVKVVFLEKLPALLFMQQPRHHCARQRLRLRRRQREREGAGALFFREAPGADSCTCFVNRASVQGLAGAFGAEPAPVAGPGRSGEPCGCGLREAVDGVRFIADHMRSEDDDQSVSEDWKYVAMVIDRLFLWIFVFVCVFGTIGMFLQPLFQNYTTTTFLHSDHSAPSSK
Chain of Neuronal acetylcholine receptor; alpha6/beta2 (Q15825 whole entry): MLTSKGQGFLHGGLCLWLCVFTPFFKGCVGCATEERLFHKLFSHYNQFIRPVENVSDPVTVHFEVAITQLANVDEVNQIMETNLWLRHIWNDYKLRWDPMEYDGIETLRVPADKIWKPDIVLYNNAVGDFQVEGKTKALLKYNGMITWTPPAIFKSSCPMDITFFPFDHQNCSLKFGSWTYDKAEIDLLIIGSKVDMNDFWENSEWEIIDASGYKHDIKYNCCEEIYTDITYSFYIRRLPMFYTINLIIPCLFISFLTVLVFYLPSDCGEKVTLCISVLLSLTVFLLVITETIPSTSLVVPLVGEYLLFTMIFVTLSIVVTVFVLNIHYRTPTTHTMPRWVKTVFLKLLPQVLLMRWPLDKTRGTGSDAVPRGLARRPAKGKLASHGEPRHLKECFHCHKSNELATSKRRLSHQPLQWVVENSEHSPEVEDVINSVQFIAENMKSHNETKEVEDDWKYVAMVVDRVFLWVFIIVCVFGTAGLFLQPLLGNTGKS

[4] = Selectivity ratio of IC50 for alpha6beta2 nAChR to IC50 for alpha3beta2 nAChR

Chain of Neuronal acetylcholine receptor; alpha3/beta2 (P17787 whole entry): as the sequence (P17787 whole entry) above
Chain of Neuronal acetylcholine receptor; alpha3/beta2 (P32297 whole entry): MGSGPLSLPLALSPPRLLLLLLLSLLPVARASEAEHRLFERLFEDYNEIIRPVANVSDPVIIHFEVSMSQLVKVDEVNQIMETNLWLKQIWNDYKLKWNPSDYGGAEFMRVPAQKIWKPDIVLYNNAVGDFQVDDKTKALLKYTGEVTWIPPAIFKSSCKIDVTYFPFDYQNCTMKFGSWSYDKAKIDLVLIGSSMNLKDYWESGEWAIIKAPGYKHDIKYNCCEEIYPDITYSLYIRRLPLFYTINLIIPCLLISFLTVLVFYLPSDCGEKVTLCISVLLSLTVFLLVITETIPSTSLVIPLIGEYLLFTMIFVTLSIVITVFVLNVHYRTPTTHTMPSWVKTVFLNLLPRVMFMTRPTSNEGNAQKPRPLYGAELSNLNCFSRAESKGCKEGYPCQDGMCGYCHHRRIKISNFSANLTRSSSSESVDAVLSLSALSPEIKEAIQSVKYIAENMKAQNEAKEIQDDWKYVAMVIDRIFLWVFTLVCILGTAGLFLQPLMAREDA

SMILES | pIC50 [1] | Selectivity ratio [2] | pIC50 [3] | Ratio IC50 [4]
CC[C@H](C)[C@H](NC(=O)[C@H](CS)NC(=O)[C@@H]1CCCN1C(=O)[C@@H]1CCCN1C(=O)[C@H](CCCNC(=N)N)NC(=O)[C@H](CO)NC(=O)[C@H](CS)NC(=O)[C@H](CS)NC(=O)CN)C(=O)N[C@@H](C)C(=O)N[C@@H](CC(N)=O)C(=O)N[C@@H](CC(N)=O)C(=O)N1CCC[C@H]1C(=O)N[C@@H](CC(=O)O)C(=O)N[C@@H](CC(C)C)C(=O)N[C@@H](CS)C(=O)O | 8.46 |  |  | 
CC[C@H](C)[C@H](NC(=O)[C@H](Cc1cnc[nH]1)NC(=O)[C@@H]1CCCN1C(=O)[C@H](CC(N)=O)NC(=O)[C@H](CC(N)=O)NC(=O)[C@@H](NC(=O)[C@H](CC(N)=O)NC(=O)[C@H](CS)NC(=O)[C@H](C)NC(=O)[C@@H]1CCCN1C(=O)[C@H](Cc1cnc[nH]1)NC(=O)[C@H](CO)NC(=O)[C@H](CS)NC(=O)[C@H](CS)NC(=O)CN)C(C)C)C(=O)N[C@@H](CS)C(=O)NCC(=O)O (H-GCCSHPACNVNNPHICG-OH) | 7.96 | 20 | 6.70 | 0.0547
CC(C)C[C@H](NC(=O)[C@@H](NC(=O)[C@H](C)NC(=O)[C@H](CS)NC(=O)[C@@H]1CCCN1C(=O)[C@@H]1CCCN1C(=O)[C@@H](NC(=O)[C@H](CO)NC(=O)[C@H](CS)NC(=O)[C@H](CS)NC(=O)CN)[C@@H](C)O)C(C)C)C(=O)N[C@@H](Cc1ccc(O)cc1)C(=O)N[C@@H](CS)C(=O)O (H-GCCSTPPCAVLYC-OH) | 8.24 | 20 | 9.59 | 22

Source: ChEMBL document CHEMBL1152511, “Structural basis for alpha-conotoxin potency and selectivity” (Bioorg Med Chem, 2009)
